Values of other authors in patent US20220031739A1, “ANTI-VIRAL COMPOSITIONS AND METHODS OF USE THEREOF” (Eye Therapies LLC, priority 2020, published 2022).

System: herpes simplex virus ("HSV")

O=c1[nH]c(=O)n([C@H]2C[C@H](O)[C@@H](CO)O2)cc1C(F)(F)F [Trifluridine, trifluridine]
toxicity (likelihood especially high when used for long periods for deeper infections): causes toxicity of both virus and corneal cells | time to treat superficial HSV infections from the start of treatment (superficial HSV infections): ≤ 1 week
